Experimental data as given in paper PMC2119337 (The Journal of Experimental Medicine, 1992).
No end group written: not given here.

What was measured:
(PL/J x SJL/J)F1 mice [1] = experiment: Inhibition of EAE by coimmunization of competitor peptide with Ac1-11; type: in vivo; details: Table 2, Ac1-11 25 nmol alone or with competitor 500 nmol
(PL/J x SJL/J)F1 mice [2] = type: in vivo; details: Table 1, observed 30-35 d, three experiments
[3] = biological target: T1, A alpha uA beta u (MHC class II molecules) (Mus musculus, UniProt P06344+P14438); details: cited from earlier work
T1 sequence (P14438 1-227): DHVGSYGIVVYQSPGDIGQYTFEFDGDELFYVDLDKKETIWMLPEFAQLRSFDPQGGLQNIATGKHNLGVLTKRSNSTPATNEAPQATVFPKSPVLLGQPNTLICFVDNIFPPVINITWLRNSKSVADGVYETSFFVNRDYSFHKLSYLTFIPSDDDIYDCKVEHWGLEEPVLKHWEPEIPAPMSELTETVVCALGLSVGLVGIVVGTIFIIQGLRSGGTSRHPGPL
T1 sequence (P06344 28-263): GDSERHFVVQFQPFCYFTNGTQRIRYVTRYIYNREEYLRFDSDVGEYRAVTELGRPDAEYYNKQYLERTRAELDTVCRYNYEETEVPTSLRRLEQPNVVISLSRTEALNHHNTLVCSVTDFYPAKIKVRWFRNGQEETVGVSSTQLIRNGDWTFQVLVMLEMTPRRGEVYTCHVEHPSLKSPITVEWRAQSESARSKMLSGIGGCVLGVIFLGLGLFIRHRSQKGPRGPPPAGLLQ

Substance: Ac1-11: immunodominant N-terminal myelin basic protein (MBP) peptide, wild type (Ac-MGNHSGKRELS; UniProt P04370 1-11, looked up, fragment)
- Day of onset ((PL/J x SJL/J)F1 mice [1]): 12.75
- Mean clinical scores ((PL/J x SJL/J)F1 mice [1]; grades 1-5): 3.4
- Incidence of EAE (mice with disease/total) ((PL/J x SJL/J)F1 mice [2]; 100 nmol peptide in CFA s.c.): 27/31
- Percent incidence of EAE ((PL/J x SJL/J)F1 mice [2]; […]): 87%
- Binding to AαuAβu [3]: poor binder
